Results: patent US12497408B2, “Tetracyclic compounds and methods for the treatment of Zika virus infection” (priority 2021, dated 2025)
pEC50: −log10 of the molar value.

test system: ZIKV; assay: ZIKV reporter virus-based antiviral screening on Huh7 cells; type: cell-based, Zika virus; settings: Zika virus, Huh-7, 48 h, Huh7 cells infected with recombinant luciferase reporter ZIKV (MOI about 0.1), luciferase signal
Procedure, shortened: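 Huh7 cells in 2% FBS assay medium infected at MOI about 0.1 with Renilla or Nano luciferase ZIKV premixed with nine-point compound dilutions, 48 hrs at 37° C. Luciferase signal normalized to DMSO controls as 100%; viability optionally by CellTiter-Glo with Rlu virus.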

Compared with COC(=O)N[C@H](C(=O)N1[C@H](c2nc(Cl)c(-c3cc4c5c(c3)OCc3cc(-c6[nH]c([C@@H]7C[C@@H]8CCCC[C@@H]8N7C(=O)[C@@H](NC(=O)OC)C(C)C)nc6Cl)cc(c3-5)OC4)[nH]2)C[C@@H]2CCCC[C@@H]21)C(C)C [Compound 37, dimethyl ((2S,2′S)-((2S,2′S,3aS,3a′S,7aS,7a′S)-((5,10-dihydrochromeno[5,4,3-cde]chromene-2,7-diyl)bis(4-chloro-1H-imidazole-5,2-diyl))bis(octahydro-1H-indole-2,1-diyl))bis(3-methyl-1-oxobutane-1,2-diyl))dicarbamate], CC[C@H](C)[C@H](NC(=O)OC)C(=O)N1[C@H](c2nc(Cl)c(-c3cc4c5c(c3)OCc3cc(-c6[nH]c([C@@H]7C[C@@H]8CCCC[C@@H]8N7C(=O)[C@@H](NC(=O)OC)[C@@H](C)CC)nc6Cl)cc(c3-5)OC4)[nH]2)C[C@@H]2CCCC[C@@H]21 [Compound 39, dimethyl ((2S,2′S,3S,3′S)-((2S,2′S,3aS,3a′S,7aS,7a′S)-((5,10-dihydrochromeno[5,4,3-cde]chromene-2,7-diyl)bis(4-chloro-1H-imidazole-5,2-diyl))bis(octahydro-1H-indole-2,1-diyl))bis(3-methyl-1-oxopentane-1,2-diyl))dicarbamate] is 0.28 log units lower in pEC50: 8.24 for the first, 7.96 for the second. The first is the more potent here.

First: COC(=O)N[C@H](C(=O)N1[C@H](c2nc(Cl)c(-c3cc4c5c(c3)OCc3cc(-c6[nH]c([C@@H]7C[C@@H]8CCCC[C@@H]8N7C(=O)[C@@H](NC(=O)OC)C(C)(C)C(F)(F)F)nc6Cl)cc(c3-5)OC4)[nH]2)C[C@@H]2CCCC[C@@H]21)C(C)(C)C(F)(F)F [Compound 38, dimethyl ((2S,2′S)-((2S,2′S,3aS,3a′S,7aS,7a′S)-((5,10-dihydrochromeno[5,4,3-cde]chromene-2,7-diyl)bis(4-chloro-1H-imidazole-5,2-diyl))bis(octahydro-1H-indole-2,1-diyl))bis(4,4,4-trifluoro-3,3-dimethyl-1-oxobutane-1,2-diyl))dicarbamate]
Second: COC(=O)N[C@H](C(=O)N1[C@@H](C)CC[C@H]1c1nc(C(C)C)c(-c2cc3c4c(c2)OCc2cc(-c5[nH]c([C@@H]6CC[C@H](C)N6C(=O)[C@@H](NC(=O)OC)C(C)(C)C(F)(F)F)nc5C(C)C)cc(c2-4)OC3)[nH]1)C(C)(C)C(F)(F)F [Compound 42, dimethyl ((2S,2′S)-((2S,2′S,5S,5′S)-((5,10-dihydrochromeno[5,4,3-cde]chromene-2,7-diyl)bis(4-isopropyl-1H-imidazole-5,2-diyl))bis(2-methylpyrrolidine-5,1-diyl))bis(4,4,4-trifluoro-3,3-dimethyl-1-oxobutane-1,2-diyl))dicarbamate]
The pEC50 of the first is 1.13 log units lower: 7.59 for the first, 8.72 for the second.

Going from COC(=O)N[C@H](C(=O)N1[C@@H](C)CC[C@H]1c1nc(C(C)C)c(-c2cc3c4c(c2)OCc2cc(-c5[nH]c([C@@H]6CC[C@H](C)N6C(=O)[C@@H](NC(=O)OC)C(C)C)nc5C(C)C)cc(c2-4)OC3)[nH]1)C(C)C [Compound 40, dimethyl ((2S,2′S)-((2S,2′S,5S,5′S)-((5,10-dihydrochromeno[5,4,3-cde]chromene-2,7-diyl)bis(4-isopropyl-1H-imidazole-5,2-diyl))bis(2-methylpyrrolidine-5,1-diyl))bis(3-methyl-1-oxobutane-1,2-diyl))dicarbamate] to COC(=O)N[C@H](C(=O)N1[C@@H](C)CC[C@H]1c1nc(Cl)c(-c2cc3c4c(c2)OCc2cc(-c5[nH]c([C@@H]6CC[C@H](C)N6C(=O)[C@@H](NC(=O)OC)C(C)C)nc5C(C)C)cc(c2-4)OC3)[nH]1)C(C)C [Compound 43, methyl ((S)-1-((2S,5S)-2-(5-(7-(4-chloro-2-((2S,5S)-1-((methoxycarbonyl)-L-valyl)-5-methylpyrrolidin-2-yl)-1H-imidazol-5-yl)-5,10-dihydrochromeno[5,4,3-cde]chromen-2-yl)-4-isopropyl-1H-imidazol-2-yl)-5-methylpyrrolidin-1-yl)-3-methyl-1-oxobutan-2-yl)carbamate], the pEC50 rises from 8.25 to 8.80 (0.55 log units).

CC[C@H](C)[C@H](NC(=O)OC)C(=O)N1[C@@H](C)CC[C@H]1c1nc(C(C)C)c(-c2cc3c4c(c2)OCc2cc(-c5[nH]c([C@@H]6CC[C@H](C)N6C(=O)[C@@H](NC(=O)OC)[C@@H](C)CC)nc5C(C)C)cc(c2-4)OC3)[nH]1 [Compound 41, dimethyl ((2S,2′S,3S,3′S)-((2S,2′S,5S,5′S)-((5,10-dihydrochromeno[5,4,3-cde]chromene-2,7-diyl)bis(4-isopropyl-1H-imidazole-5,2-diyl))bis(2-methylpyrrolidine-5,1-diyl))bis(3-methyl-1-oxopentane-1,2-diyl))dicarbamate] and CC[C@H](C)[C@H](NC(=O)OC)C(=O)N1[C@@H](C)CC[C@H]1c1nc(Cl)c(-c2cc3c4c(c2)OCc2cc(-c5[nH]c([C@@H]6CC[C@H](C)N6C(=O)[C@@H](NC(=O)OC)[C@@H](C)CC)nc5C(C)C)cc(c2-4)OC3)[nH]1 [Compound 44, methyl ((2S,3S)-1-((2S,5S)-2-(5-(7-(4-chloro-2-((2S,5S)-1-((methoxycarbonyl)-L-isoleucyl)-5-methylpyrrolidin-2-yl)-1H-imidazol-5-yl)-5,10-dihydrochromeno[5,4,3-cde]chromen-2-yl)-4-isopropyl-1H-imidazol-2-yl)-5-methylpyrrolidin-1-yl)-3-methyl-1-oxopentan-2-yl)carbamate] are within 0.2 log units of each other in pEC50: 8.55 for the first, 8.72 for the second.

Compared with COC[C@H]1C[C@@H](c2nc(Cl)c(-c3cc4c5c(c3)OCc3cc(-c6[nH]c([C@@H]7C[C@H](COC)CN7C(=O)[C@@H](NC(=O)OC)C(C)C)nc6Cl)cc(c3-5)OC4)[nH]2)N(C(=O)[C@@H](NC(=O)OC)C(C)C)C1 [Compound 45, dimethyl ((2S,2′S)-((3S,3′S,5S,5′S)-((5,10-dihydrochromeno[5,4,3-cde]chromene-2,7-diyl)bis(4-chloro-1H-imidazole-5,2-diyl))bis(3-(methoxymethyl)pyrrolidine-5,1-diyl))bis(3-methyl-1-oxobutane-1,2-diyl))dicarbamate], COC(=O)N[C@H](C(=O)N1C[C@@H](C)C[C@H]1c1nc(Cl)c(-c2cc3c4c(c2)OCc2cc(-c5[nH]c([C@@H]6C[C@H](C)CN6C(=O)[C@@H](NC(=O)OC)C(C)C)nc5Cl)cc(c2-4)OC3)[nH]1)C(C)C [Compound 48, dimethyl ((2S,2′S)-((3S,3′S,5S,5′S)-((5,10-dihydrochromeno[5,4,3-cde]chromene-2,7-diyl)bis(4-chloro-1H-imidazole-5,2-diyl))bis(3-methylpyrrolidine-5,1-diyl))bis(3-methyl-1-oxobutane-1,2-diyl))dicarbamate] is 0.63 log units higher in pEC50: 7.71 for the first, 8.34 for the second. The second is the more potent here.

Going from COC(=O)N[C@H](C(=O)N1[C@@H]2C[C@@H]2C[C@H]1c1nc(Cl)c(-c2cc3c4c(c2)OCc2cc(-c5[nH]c([C@@H]6C[C@H]7C[C@H]7N6C(=O)[C@@H](NC(=O)OC)C(C)C)nc5Cl)cc(c2-4)OC3)[nH]1)C(C)C [Compound 46, dimethyl ((2S,2′S)-((1R,1′R,3S,3′S,5R,5′R)-((5,10-dihydrochromeno[5,4,3-cde]chromene-2,7-diyl)bis(4-chloro-1H-imidazole-5,2-diyl))bis(2-azabicyclo[3.1.0]hexane-3,2-diyl))bis(3-methyl-1-oxobutane-1,2-diyl))dicarbamate] to COC(=O)N[C@H](C(=O)N1C[C@@H](F)C[C@H]1c1nc(Cl)c(-c2cc3c4c(c2)OCc2cc(-c5[nH]c([C@@H]6C[C@H](F)CN6C(=O)[C@@H](NC(=O)OC)C(C)C)nc5Cl)cc(c2-4)OC3)[nH]1)C(C)C [Compound 50, dimethyl ((2S,2′S)-((3S,3′S,5S,5′S)-((5,10-dihydrochromeno[5,4,3-cde]chromene-2,7-diyl)bis(4-chloro-1H-imidazole-5,2-diyl))bis(3-fluoropyrrolidine-5,1-diyl))bis(3-methyl-1-oxobutane-1,2-diyl))dicarbamate], the pEC50 falls from 8.30 to 6.62 (1.68 log units). The first is the more potent here.

Going from COC(=O)N[C@H](C(=O)N1C[C@@H](C)C[C@H]1c1nc(Cl)c(-c2cc3c4c(c2)OCc2cc(-c5[nH]c([C@@H]6C[C@H](C)CN6C(=O)[C@@H](NC(=O)OC)[C@@H](C)OC)nc5Cl)cc(c2-4)OC3)[nH]1)[C@@H](C)OC [Compound 47, dimethyl ((2S,2′S,3R,3′R)-((3S,3′S,5S,5′S)-((5,10-dihydrochromeno[5,4,3-cde]chromene-2,7-diyl)bis(4-chloro-1H-imidazole-5,2-diyl))bis(3-methylpyrrolidine-5,1-diyl))bis(3-methoxy-1-oxobutane-1,2-diyl))dicarbamate] to CC[C@H](C)[C@H](NC(=O)OC)C(=O)N1C[C@@H](F)C[C@H]1c1nc(Cl)c(-c2cc3c4c(c2)OCc2cc(-c5[nH]c([C@@H]6C[C@H](F)CN6C(=O)[C@@H](NC(=O)OC)[C@@H](C)CC)nc5Cl)cc(c2-4)OC3)[nH]1 [Compound 51, dimethyl ((2S,2′S,3S,3′S)-((3S,3′S,5S,5′S)-((5,10-dihydrochromeno[5,4,3-cde]chromene-2,7-diyl)bis(4-chloro-1H-imidazole-5,2-diyl))bis(3-fluoropyrrolidine-5,1-diyl))bis(3-methyl-1-oxopentane-1,2-diyl))dicarbamate], the pEC50 falls from 7.77 to 7.01 (0.76 log units). The first is the more potent here.

COC[C@H]1CC[C@@H](c2nc(Cl)c(-c3cc4c5c(c3)OCc3cc(-c6[nH]c([C@@H]7CC[C@H](COC)N7C(=O)[C@@H](NC(=O)OC)C(C)C)nc6Cl)cc(c3-5)OC4)[nH]2)N1C(=O)[C@@H](NC(=O)OC)C(C)C [Compound 49, dimethyl ((2S,2′S)-((2R,2′R,5S,5′S)-((5,10-dihydrochromeno[5,4,3-cde]chromene-2,7-diyl)bis(4-chloro-1H-imidazole-5,2-diyl))bis(2-(methoxymethyl)pyrrolidine-5,1-diyl))bis(3-methyl-1-oxobutane-1,2-diyl))dicarbamate] gave a pEC50 of 8.72.
